Reference: patent US20070202192A1, “Fungical Mixtures For Controlling Rice Pathogens” (BASF AKTIENGESELLSCHAFT, priority 2003, published 2007)
Where a name gives a salt, the structure may show the parent alone.

System: Cochliobolus miyabeanus
Assay: activity against brown spot of rice caused by Cochliobolus miyabeanus, protective application
Assay type: in vivo
Conditions: rice seedlings cultivar Tai-Nong 67, protective application, 6 days after inoculation
Description: 1% by weight of the emulsifier Uniperol® EL (wetting agent having emulsifying and dispersant action based on ethoxylated alkylphenols) was added to this solution, and the mixture was diluted with water to the desired concentration.
Use example—activity against brown spot of rice caused by Cochliobolus miyabeanus, protective application […]
The next day, the plants were inoculated with an aqueous spore suspension of Cochliobolus miyabeanus. The test plants were then placed in climatized chambers at 22-24° C. and 95-99% relative atmospheric humidity for 6 days. The extent of the development of the infection on the leaves was then determined visually.
Evaluation was carried out by determining the percentage of infected leaf area. These percentages were converted into efficacies.
The efficacy (E) is calculated as follows using Abbot's formula: E=(1−α/β)·100 α corresponds to the fungicidal infection of the treated plants in % and β corresponds to the fungicidal infection of the untreated (control) plants in % An efficacy of 0 means that the infection level of the treated plants corresponds to that of the untreated control plants; an efficacy of 100 means that the treated plants are not infected.

CC1CCN(c2c(-c3c(F)cc(F)cc3F)c(Cl)nc3ncnn23)CC1 [I, 5-chloro-7-(4-methylpiperidin-1-yl)-6-(2,4,6-trifluorophenyl)-[1,2,4]triazolo[1,5-a]pyrimidine]
Efficacy in % of the untreated control (4 ppm active compound in the spray liquor): 33%

CCO[PH](=O)O [IIb (fosetyl-Al), ethyl phosphonate aluminum salt]
Efficacy in % of the untreated control (1 ppm active compound in the spray liquor): 0%
Efficacy in % of the untreated control (16 ppm active compound in the spray liquor): 0%
